{"source": "ChEMBL document CHEMBL1148055", "about": "“Bioactive terpenoids from Octocorallia, I. Bioactive diterpenoids: litophynols A and B from the mucus of the soft coral Litophyton sp” (J Nat Prod, 1994)"}
{"assay": "Toxicity against rabbit RBC assessed as hemolytic activity after 15 mins", "format": "cell-based, Oryctolagus cuniculus", "conditions": "erythrocyte, 0.25 h"}
{"smiles": "C=C1[C@@H]2[C@H]([C@H](C(C)C)C[C@H]1OC(C)=O)[C@@H]1O[C@H]2C[C@](C)(O)[C@H](O)CC[C@@]1(C)OC(=O)CCC", "note": "[LITOPHYNIN I MONOACETATE]", "Activity": "Toxic"}
{"smiles": "C=C1CC[C@H](C(C)C)[C@@H]2[C@H]1[C@@H]1O[C@H]2[C@](C)(OC(=O)CCC)CC[C@H](O)C(=C)[C@H]1O", "note": "[LITOPHYNOL A]", "Activity": "Toxic"}
{"smiles": "C=C1CC[C@H](C(C)C)[C@@H]2[C@H]1[C@H]1C[C@](C)(O)[C@@H](O)CC[C@@](C)(OC(=O)CCC)[C@@H]2O1", "note": "[LITOPHYNIN E]", "Activity": "Toxic"}
{"smiles": "C=C1CC[C@H](C(C)C)[C@@H]2[C@H]1[C@@H]1O[C@H]2[C@](C)(OC(=O)CCC)CC[C@H](O)[C@@](C)(O)[C@H]1O", "note": "[LITOPHYNOL B]", "Activity": "Toxic"}
